From ChEMBL document CHEMBL2346651, “Structure-activity relationship study of tachykinin peptides for the development of novel neurokinin-3 receptor selective agonists” (Bioorg Med Chem, 2013) come the findings set out here.

Residues, ends and D or L forms follow the SMILES beside them. Bounds are passed on as bounds.

In experiment [1] the target is Substance-P receptor (Homo sapiens) (UniProt P25103). The experiment in a line: Displacement of [125I]-BH-SP from NK1R (unknown origin) transfected in CHO cells at 10 uM by gamma counting analysis. The class given is cell-based. For orientation: Loss of bound radioactivity is the signal in a displacement assay; it reports binding, not function.
For experiment [2], the target named is T1, Substance-K receptor (Homo sapiens) (UniProt P21452).
T1 sequence (whole entry): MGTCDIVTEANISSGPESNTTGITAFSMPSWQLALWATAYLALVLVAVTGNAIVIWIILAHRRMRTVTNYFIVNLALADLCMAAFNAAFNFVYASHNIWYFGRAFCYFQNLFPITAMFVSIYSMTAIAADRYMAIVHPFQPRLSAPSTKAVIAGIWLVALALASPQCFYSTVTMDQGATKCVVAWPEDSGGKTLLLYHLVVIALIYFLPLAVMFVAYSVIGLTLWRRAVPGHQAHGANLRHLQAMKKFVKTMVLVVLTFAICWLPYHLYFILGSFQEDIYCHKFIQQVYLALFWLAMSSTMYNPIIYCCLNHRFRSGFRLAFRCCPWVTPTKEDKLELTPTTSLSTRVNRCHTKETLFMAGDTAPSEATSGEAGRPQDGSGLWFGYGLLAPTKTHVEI
Put plainly: Displacement of [125I]-NKA from NK2R (unknown origin) transfected in CHO cells at 10 uM by gamma counting analysis. The class given is cell-based.

Experiment [3] concerns the target T2, Neuromedin-K receptor (Homo sapiens, UniProt P29371).
T2 sequence (P29371 whole entry): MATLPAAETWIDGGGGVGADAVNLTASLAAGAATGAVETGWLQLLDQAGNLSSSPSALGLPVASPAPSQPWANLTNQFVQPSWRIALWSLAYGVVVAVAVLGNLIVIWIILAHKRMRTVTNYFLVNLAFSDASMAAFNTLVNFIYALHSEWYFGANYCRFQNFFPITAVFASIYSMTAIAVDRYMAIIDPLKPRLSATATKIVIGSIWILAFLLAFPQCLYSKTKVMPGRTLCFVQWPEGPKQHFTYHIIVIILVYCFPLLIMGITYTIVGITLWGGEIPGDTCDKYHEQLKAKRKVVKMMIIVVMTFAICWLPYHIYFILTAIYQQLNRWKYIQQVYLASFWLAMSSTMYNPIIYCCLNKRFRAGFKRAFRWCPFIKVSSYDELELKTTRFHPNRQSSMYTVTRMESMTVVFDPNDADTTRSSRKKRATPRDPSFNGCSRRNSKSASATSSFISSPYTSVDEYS
The experiment in a line: Displacement of ([125I]-His3, MePhe7)-NKB from NK3R (unknown origin) transfected in CHO cells by gamma counting analysis. It counts as cell-based.

The target of experiment [4] is T2, Neuromedin-K receptor. Put plainly: Agonist activity at NK3R (unknown origin) transfected in CHO cells assessed as calcium influx […]. It counts as functional, cell-based.

Usually inhibition stands for the percentage by which the read-out fell short of the control. A low value points to a weak effect. In general, IC50 refers to the concentration needed to halve the response being measured. Broadly, the EC50 is the concentration that produces a half-maximal response.

Sequence of Substance-P receptor (Homo sapiens) (P25103 whole entry): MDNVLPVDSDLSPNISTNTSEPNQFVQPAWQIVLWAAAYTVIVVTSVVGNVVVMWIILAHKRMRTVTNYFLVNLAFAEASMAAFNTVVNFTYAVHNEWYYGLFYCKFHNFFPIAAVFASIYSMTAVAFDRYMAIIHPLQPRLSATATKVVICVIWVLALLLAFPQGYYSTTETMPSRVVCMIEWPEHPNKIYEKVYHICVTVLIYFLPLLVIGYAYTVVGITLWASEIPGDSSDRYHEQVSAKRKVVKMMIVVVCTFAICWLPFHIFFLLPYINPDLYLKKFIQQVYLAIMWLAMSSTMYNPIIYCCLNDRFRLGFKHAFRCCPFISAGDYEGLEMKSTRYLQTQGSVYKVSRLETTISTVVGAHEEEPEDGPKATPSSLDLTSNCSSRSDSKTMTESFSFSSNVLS

Consider `CSCC[C@H](NC(=O)[C@H](CC(C)C)NC(=O)CNC(=O)[C@H](Cc1ccccc1)N(C)C(=O)[C@H](Cc1ccccc1)NC(=O)[C@H](CC(=O)O)NC(=O)[C@H](CC(=O)O)NC(=O)[C@H](Cc1cnc[nH]1)NC(=O)[C@H](CCSC)NC(=O)[C@@H](N)CC(=O)O)C(N)=O` (HELM PEPTIDE1{D.M.H.D.D.F.[meF].G.L.M.[am]}$$$$V2.0), for which the inhibition in experiment [1] and in experiment [2] was less than 10% each time. The same compound showed an IC50 in experiment [3] of 38 nM. For the same compound, in experiment [4], the EC50 is 0.04 nM.
For the compound `CSCC[C@H](NC(=O)[C@H](CC(C)C)NC(=O)CNC(=O)[C@H](Cc1ccccc1)N(C)C(=O)[C@H](Cc1ccccc1)NC(=O)[C@H](CCC(=O)O)NC(=O)[C@H](CC(=O)O)NC(=O)[C@H](Cc1cnc[nH]1)NC(=O)[C@H](CCSC)NC(=O)[C@@H](N)CC(=O)O)C(N)=O` (HELM PEPTIDE1{D.M.H.D.E.F.[meF].G.L.M.[am]}$$$$V2.0), the inhibition in experiment [1] and in experiment [2] was less than 10% in each case. Besides, the IC50 in experiment [3] came out at 7.5 nM. The EC50 in experiment [4] worked out at 0.024 nM.
For the compound `CSCC[C@H](NC(=O)[C@H](CC(C)C)NC(=O)CNC(=O)[C@H](Cc1ccccc1)N(C)C(=O)[C@H](Cc1ccccc1)NC(=O)[C@H](Cc1ccccc1)NC(=O)[C@H](CC(=O)O)NC(=O)[C@H](Cc1cnc[nH]1)NC(=O)[C@H](CCSC)NC(=O)[C@@H](N)CC(=O)O)C(N)=O` (HELM PEPTIDE1{D.M.H.D.F.F.[meF].G.L.M.[am]}$$$$V2.0), the inhibition is less than 10% in experiment [1] and 57% in experiment [2]. For the same compound, the IC50 in experiment [3] came out at 3 nM. Further, the EC50 in experiment [4] turned out to be 0.013 nM.
For `CSCC[C@H](NC(=O)[C@H](CC(C)C)NC(=O)CNC(=O)[C@H](Cc1ccccc1)N(C)C(=O)[C@H](Cc1ccccc1)NC(=O)CNC(=O)[C@H](CC(=O)O)NC(=O)[C@H](Cc1cnc[nH]1)NC(=O)[C@H](CCSC)NC(=O)[C@@H](N)CC(=O)O)C(N)=O` (HELM PEPTIDE1{D.M.H.D.G.F.[meF].G.L.M.[am]}$$$$V2.0), in that order: less than 10%, 22%, 13 nM and 0.036 nM.
As for `CSCC[C@H](NC(=O)[C@H](CC(C)C)NC(=O)CNC(=O)[C@H](Cc1ccccc1)N(C)C(=O)[C@H](Cc1ccccc1)NC(=O)[C@H](Cc1cnc[nH]1)NC(=O)[C@H](CC(=O)O)NC(=O)[C@H](Cc1cnc[nH]1)NC(=O)[C@H](CCSC)NC(=O)[C@@H](N)CC(=O)O)C(N)=O` (HELM PEPTIDE1{D.M.H.D.H.F.[meF].G.L.M.[am]}$$$$V2.0), the values for the inhibition in experiment [1] and in experiment [2] were less than 10% and 47%, respectively. In addition, in experiment [3], the IC50 stood at 5.9 nM. Moreover, the EC50 in experiment [4] was determined as 0.017 nM.
On to `CC[C@H](C)[C@H](NC(=O)[C@H](CC(=O)O)NC(=O)[C@H](Cc1cnc[nH]1)NC(=O)[C@H](CCSC)NC(=O)[C@@H](N)CC(=O)O)C(=O)N[C@@H](Cc1ccccc1)C(=O)N(C)[C@@H](Cc1ccccc1)C(=O)NCC(=O)N[C@@H](CC(C)C)C(=O)N[C@@H](CCSC)C(N)=O` (HELM PEPTIDE1{D.M.H.D.I.F.[meF].G.L.M.[am]}$$$$V2.0), for which the values for the inhibition in experiment [1] and in experiment [2] were less than 10% and 35%, respectively. In experiment [3], this compound showed an IC50 of 4 nM. Also, in experiment [4], the concentration for a half-maximal effect (EC50) was 0.06 nM.
Consider `CSCC[C@H](NC(=O)[C@H](CC(C)C)NC(=O)CNC(=O)[C@H](Cc1ccccc1)N(C)C(=O)[C@H](Cc1ccccc1)NC(=O)[C@H](CCCCN)NC(=O)[C@H](CC(=O)O)NC(=O)[C@H](Cc1cnc[nH]1)NC(=O)[C@H](CCSC)NC(=O)[C@@H](N)CC(=O)O)C(N)=O` (HELM PEPTIDE1{D.M.H.D.K.F.[meF].G.L.M.[am]}$$$$V2.0), for which the inhibition in experiment [1] was determined as 40%; in experiment [2], 35%. In experiment [3], this compound had a concentration for half-maximal inhibition (IC50) of 11 nM. Also, the EC50 in experiment [4] amounted to 0.026 nM.
For `CSCC[C@H](NC(=O)[C@H](CC(C)C)NC(=O)CNC(=O)[C@H](Cc1ccccc1)N(C)C(=O)[C@H](Cc1ccccc1)NC(=O)[C@H](CC(C)C)NC(=O)[C@H](CC(=O)O)NC(=O)[C@H](Cc1cnc[nH]1)NC(=O)[C@H](CCSC)NC(=O)[C@@H](N)CC(=O)O)C(N)=O` (HELM PEPTIDE1{D.M.H.D.L.F.[meF].G.L.M.[am]}$$$$V2.0), in that order: less than 10%, 29%, 6.9 nM and 0.051 nM.
For `CSCC[C@H](NC(=O)[C@H](CC(C)C)NC(=O)CNC(=O)[C@H](Cc1ccccc1)N(C)C(=O)[C@H](Cc1ccccc1)NC(=O)[C@H](CCSC)NC(=O)[C@H](CC(=O)O)NC(=O)[C@H](Cc1cnc[nH]1)NC(=O)[C@H](CCSC)NC(=O)[C@@H](N)CC(=O)O)C(N)=O` (HELM PEPTIDE1{D.M.H.D.M.F.[meF].G.L.M.[am]}$$$$V2.0), in that order: less than 10%, 41%, 1.7 nM and 0.032 nM.
For `CSCC[C@H](NC(=O)[C@H](CC(C)C)NC(=O)CNC(=O)[C@H](Cc1ccccc1)N(C)C(=O)[C@H](Cc1ccccc1)NC(=O)[C@H](CC(N)=O)NC(=O)[C@H](CC(=O)O)NC(=O)[C@H](Cc1cnc[nH]1)NC(=O)[C@H](CCSC)NC(=O)[C@@H](N)CC(=O)O)C(N)=O` (HELM PEPTIDE1{D.M.H.D.N.F.[meF].G.L.M.[am]}$$$$V2.0) the same measures were less than 10%, 10%, 18 nM and 0.036 nM.
With `CSCC[C@H](NC(=O)[C@H](CC(C)C)NC(=O)CNC(=O)[C@H](Cc1ccccc1)N(C)C(=O)[C@H](Cc1ccccc1)NC(=O)[C@@H]1CCCN1C(=O)[C@H](CC(=O)O)NC(=O)[C@H](Cc1cnc[nH]1)NC(=O)[C@H](CCSC)NC(=O)[C@@H](N)CC(=O)O)C(N)=O` (HELM PEPTIDE1{D.M.H.D.P.F.[meF].G.L.M.[am]}$$$$V2.0), the results for the inhibition in experiment [1] and in experiment [2] were less than 10% and 38%, respectively. In experiment [3], the 50% inhibitory concentration (IC50) is 45 nM. The EC50 in experiment [4] came to 0.041 nM.
For `CSCC[C@H](NC(=O)[C@H](CC(C)C)NC(=O)CNC(=O)[C@H](Cc1ccccc1)N(C)C(=O)[C@H](Cc1ccccc1)NC(=O)[C@H](CCC(N)=O)NC(=O)[C@H](CC(=O)O)NC(=O)[C@H](Cc1cnc[nH]1)NC(=O)[C@H](CCSC)NC(=O)[C@@H](N)CC(=O)O)C(N)=O` (HELM PEPTIDE1{D.M.H.D.Q.F.[meF].G.L.M.[am]}$$$$V2.0), in that order: 24%, 21%, 4.6 nM and 0.043 nM.
As for `CSCC[C@H](NC(=O)[C@H](CC(C)C)NC(=O)CNC(=O)[C@H](Cc1ccccc1)N(C)C(=O)[C@H](Cc1ccccc1)NC(=O)[C@H](CO)NC(=O)[C@H](CC(=O)O)NC(=O)[C@H](Cc1cnc[nH]1)NC(=O)[C@H](CCSC)NC(=O)[C@@H](N)CC(=O)O)C(N)=O` (HELM PEPTIDE1{D.M.H.D.S.F.[meF].G.L.M.[am]}$$$$V2.0), the inhibition was less than 10% in experiment [1] and 31% in experiment [2]. For the same compound, the IC50 in experiment [3] was determined as 3.6 nM. In addition, the half-maximal effective concentration (EC50) in experiment [4] amounted to 0.04 nM.
For `CSCC[C@H](NC(=O)[C@H](CC(C)C)NC(=O)CNC(=O)[C@H](Cc1ccccc1)N(C)C(=O)[C@H](Cc1ccccc1)NC(=O)[C@@H](NC(=O)[C@H](CC(=O)O)NC(=O)[C@H](Cc1cnc[nH]1)NC(=O)[C@H](CCSC)NC(=O)[C@@H](N)CC(=O)O)[C@@H](C)O)C(N)=O` (HELM PEPTIDE1{D.M.H.D.T.F.[meF].G.L.M.[am]}$$$$V2.0), in that order: less than 10%, 19%, 4.3 nM and 0.046 nM.
With `CSCC[C@H](NC(=O)[C@H](CC(C)C)NC(=O)CNC(=O)[C@H](Cc1ccccc1)N(C)C(=O)[C@H](Cc1ccccc1)NC(=O)[C@@H](NC(=O)[C@H](CC(=O)O)NC(=O)[C@H](Cc1cnc[nH]1)NC(=O)[C@H](CCSC)NC(=O)[C@@H](N)CC(=O)O)C(C)C)C(N)=O` (HELM PEPTIDE1{D.M.H.D.V.F.[meF].G.L.M.[am]}$$$$V2.0), the values for the inhibition in experiment [1] and in experiment [2] were less than 10% and 29%, respectively. For the same compound, in experiment [3], the IC50 was determined as 1.5 nM. In addition, the EC50 in experiment [4] came out at 0.065 nM.
Consider `CSCC[C@H](NC(=O)[C@H](CC(C)C)NC(=O)CNC(=O)[C@H](Cc1ccccc1)N(C)C(=O)[C@H](Cc1ccccc1)NC(=O)[C@H](Cc1c[nH]c2ccccc12)NC(=O)[C@H](CC(=O)O)NC(=O)[C@H](Cc1cnc[nH]1)NC(=O)[C@H](CCSC)NC(=O)[C@@H](N)CC(=O)O)C(N)=O` (HELM PEPTIDE1{D.M.H.D.W.F.[meF].G.L.M.[am]}$$$$V2.0), for which the inhibition in experiment [1] was less than 10%; in experiment [2] it was 79%. The same compound yielded an IC50 in experiment [3] of 1.8 nM. In experiment [4], the EC50 turned out to be 0.28 nM.
